The values that follow are results of earlier work, collected in patent publication US20140316534A1, “STENT” (Photocure ASA, priority 2011, published 2014).

Structures are written as SMILES.

This data set concerns dysplastic tissue in Barrett's esophagus.
Setting [1] is: systemic application, higher doses of 20 mg/kg and 30 mg/kg.

As for `NCC(=O)CCC(=O)O` [5-ALA, 5-amino-4-oxo-pentanoic acid], the side effects result (systemic application of 20 mg/kg or more) was “increasing side effects at high dosages”. Further, under setting [1], the “sensitivity for detection of dysplastic tissue” value is “increase the sensitivity” and the “specificity (rate of false positive fluorescence)” value is reported as “poor”.
